For 32 compounds, EC50 results are on record in patent US10626095B2, “Cyanotriazole compounds” (OTSUKA PHARMACEUTICAL CO., LTD., priority 2013, dated 2020).

In this experiment the test system is NaCT-CHO (CHO cells stably expressing human NaCT). Nature of the experiment: Assay of the citric acid cycle activation ([1,5-14C]-citric acid, diffusion of [14C]-CO2). The format is cell-based. As to conditions: 1 hour incubation at 37° C. with [1,5-14C]-citric acid. The text has this: Assay of the Citric Acid Cycle Activation
(1) Construction of the Human NaCT Expression Vector pME-NaCT
The human NaCT (also called SLC13A5 or NAC2; GenBank accession No. NM_177550) cDNA was inserted into the EcoRI-NotI site of the mammalian expression vector pME18S (GenBank accession No. AB009864) and purified by Qiagen Plasmid Maxi Kit (Qiagen).
(2) Establishment of NaCT Stably Expressed CHO Cells
The pME-NaCT vector and the pcDNA™3.1 vector containing the neomycin resistance gene (Life Technologies) were co-transfected into CHO-K1 cells (ATCC) by Lipofectaimine 2000 reagent (Life Technologies). The next day the cells were subcultured in Nutrient Mixture F-12 Ham (Sigma-Aldrich) with 10% FBS (Biological Industries), and Geneticin (Life Technologies) was added (final concentration 350 μg/mL) in the following day. CHO cell clones stably expressing NaCT were given by neomycin resistant cell screening and limiting dilution method. Established cell lines (named NaCT-CHO) were also maintained in culture medium (Nutrient Mixture F-12 Ham) with 10% FBS and 350 μg/mL Geneticin. For control cells (named pME-CHO) preparation, the naive pME18S were also transfected instead of pME-NaCT into CHO-K1 cells.
(3) Assay of the Citric Acid Cycle Activation
NaCT-CHO and pME-CHO were plated at 20,000 cells/well into white CulturPlate™-96 (PerkinElmer) two days before the assay. Prior to assay incubation, the cultured plates were washed twice with washing buffer, 10 mM HEPES-Tris(pH7.4) containing 140 mM choline chloride, 2 mM KCl, 1 mM CaCl2, 1 mM MgCl2. The compounds to be tested were dissolved and diluted in DMSO (Wako Pure Chemical industries) to 1,000 times of a final concentration, and further diluted to two times as high as the final concentration in assay buffer, 10 mM HEPES-Tris(pH7.4) containing 140 mM NaCl, 2 mM KCl, 1 mM CaCl2, 1 mM MgCl2. The range of final concentrations was properly determined based on the test compounds activity. Each 25 μL compound solution was added to well and subsequently 25 μL radio-labeled substrate solution containing 0.4 mM (0.4 MBq/mL) [1,5-^14C]-citric acid (PerkinElmer) in the assay buffer was added. After 1 hour incubation at 37° C., the reaction mixture was discarded and washed three times with pre-chilled washing buffer and then 0.1 mL MicroScint 20 (PerkinElmer) was added to well. The plate was sealed with TopSeal-A (PerkinElmer) and the radioactivity was measured using a TopCount (PerkinElmer). Non-specific activity (NS cpm) and total radio activity (Total cpm) were determined by counting of pME-CHO plated wells and NaCT-CHO plated wells without compounds, respectively. Diffusion of [^14C]—CO2 was able to be estimated from residual radioactivity (R cpm) by an equation (Total−R)/(Total−NS)×100(%). The difference of Total and R was disappeared in the presence of 0.1 μM antimycin A. EC50 values were calculated by regression analysis using SAS Statistical Analysis System (SAS institute Japan Ltd. Release 9.1).

One may read the EC50 as the concentration at which the effect is half-maximal. Higher therefore signals weaker potency.

Take `N#Cc1[nH]nnc1-c1cc(OCC2CC2)cc(-c2ccc(C(F)(F)F)cn2)c1` [Example 18, 5-[3-cyclopropylmethoxy-5-(5-trifluoromethyl-pyridin-2-yl)-phenyl]-3H-[0,1,2,3]triazole-4-carbonitrile]: the EC50 worked out at 0.57 µM.
On to `Cc1sc(Sc2cccc(C(F)(F)F)c2)nc1-c1nn[nH]c1C#N` [Example 97, 5-[5-methyl-2-(3-trifluoromethyl-phenylsulfanyl)-thiazol-4-yl]-3H-[1,2,3]triazole-4-carbonitrile], for which the EC50 came to 0.5 µM.
The same measure for `N#Cc1[nH]nnc1-c1cccc(CCc2ccc(F)cc2F)c1` [Example 40, 5-{3-[2-(2,4-difluoro-phenyl)-ethyl]-phenyl}-3H-[1,2,3]triazole-4-carbonitrile]: 0.55 µM; for `Cc1cc(-c2nn[nH]c2C#N)ccc1Cc1cccc(C(F)(F)F)c1` [Example 71, 5-[3-methyl-4-(3-trifluoromethyl-benzyl)-phenyl]-3H-[1,2,3]triazole-4-carbonitrile]: 0.59 µM.
The compound `N#Cc1[nH]nnc1-c1cccc(CSCc2ccc(OC(F)(F)F)cc2)c1` [Example 65, 5-[3-(4-trifluoromethoxy-benzylsulfanylmethyl)-phenyl]-3H-[1,2,3]triazole-4-carbonitrile] gave an EC50 of 0.79 µM.
`N#Cc1[nH]nnc1-c1cc(Cl)cc(CC2CC2)c1` [Example 1, 5-(3-chloro-5-cyclopropylmethyl-phenyl)-3H-[1,2,3]triazole-4-carbonitrile] had an EC50 of 0.5 µM.
The same measure for `Cc1sc(-c2ccc(Cl)cn2)nc1-c1nn[nH]c1C#N` [Example 95, 5-[2-(5-chloro-pyridin-2-yl)-5-methyl-thiazol-4-yl]-3H-[1,2,3]triazole-4-carbonitrile]: 0.74 µM; for `N#Cc1[nH]nnc1-c1cc(Cl)cc(-c2ccc3c(c2)OC(F)(F)O3)c1` [Example 30, 5-[3-chloro-5-(2,2-difluoro-benzo[1,3]dioxol-5-yl)-phenyl]-3H-[1,2,3]triazole-4-carbonitrile]: 0.64 µM.
To `N#Cc1[nH]nnc1-c1cc(Cl)cc(-c2csc3ccccc23)c1` [Example 25, 5-(3-(benzo[b]thiophen-3-yl)-5-chloro-phenyl)-3H-[1,2,3]triazole-4-carbonitrile] belongs 0.54 µM; to `N#Cc1[nH]nnc1-c1cc(-c2ccccc2)c(C(F)(F)F)s1` [Example 128, 5-(4-phenyl-5-trifluoromethyl-thiophen-2-yl)-3H-[1,2,3]triazole-4-carbonitrile], 0.56 µM; to `N#Cc1[nH]nnc1-c1cc(Cl)cc(N2CCC(C(F)(F)F)CC2)c1` [Example 24, 5-[3-chloro-5-(4-trifluoromethyl-piperidin-1-yl)-phenyl]-3H-[1,2,3]triazole-4-carbonitrile], 0.48 µM.
To `Cc1cc(-c2nn[nH]c2C#N)sc1-c1ccc(C(F)(F)F)cc1` [Example 130, 5-[4-methyl-5-(4-trifluoromethyl-phenyl)-thiophen-2-yl]-3H-[1,2,3]triazole-4-carbonitrile] belongs 0.73 µM.
As for `CC(C)Oc1ccc(-c2nn[nH]c2C#N)cc1-c1ccc(C(F)(F)F)nc1` [Example 17], the EC50 came out at 0.52 µM.
`N#Cc1[nH]nnc1-c1csc(-c2ccc(OC(F)(F)F)cc2)n1` [Example 80, 5-[2-(4-trifluoromethoxy-phenyl)-thiazol-4-yl]-3H-[1,2,3]triazole-4-carbonitrile]: the EC50 was 0.87 µM.
The compound `N#Cc1[nH]nnc1-c1cnc(-c2cccc(C(F)(F)F)c2)s1` [Example 111, 5-[2-(3-trifluoromethyl-phenyl)-thiazol-5-yl]-3H-[1,2,3]triazole-4-carbonitrile] yielded an EC50 of 0.75 µM.
Turning to `N#Cc1[nH]nnc1-c1ccc(F)c(-c2cc3ccccc3o2)c1` [Example 26, 5-(3-(benzofuran-2-yl)-4-fluoro-phenyl)-3H-[1,2,3]triazole-4-carbonitrile], the concentration giving a half-maximal response (EC50) is 0.69 µM. This EC50 and that of the compound before are within 1.5-fold of each other.
For `CN(Cc1cccc(-c2nn[nH]c2C#N)c1)c1ccc(F)cc1` [Example 54, 5-(3-{[N-(4-fluoro-phenyl)-N-methyl-amino]-methyl}-phenyl)-3H-[1,2,3]triazole-4-carbonitrile], the midpoint of the response, the EC50, lay at 0.43 µM.
To `N#Cc1[nH]nnc1-c1cscc1-c1cc(C(F)(F)F)cc(C(F)(F)F)c1` [Example 134, 5-[4-(3,5-bis-trifluoromethyl-phenyl)-thiophen-3-yl]-3H-[1,2,3]triazole-4-carbonitrile] belongs 0.085 µM; to `Cc1sc(-c2cccc(C(F)(F)F)n2)nc1-c1nn[nH]c1C#N` [Example 94, 5-[5-methyl-2-(6-trifluoromethyl-pyridin-2-yl)-thiazol-4-yl]-3H-[1,2,3]triazole-4-carbonitrile], 0.79 µM.
To `N#Cc1[nH]nnc1-c1csc(Sc2ccc(Cl)cc2)n1` [Example 86, 5-[2-(4-chloro-phenylsulfanyl)-thiazol-4-yl]-3H-[1,2,3]triazole-4-carbonitrile] belongs 0.67 µM.
To `CCC(OCc1ccc(C(F)(F)F)cc1)c1cccc(-c2nn[nH]c2C#N)n1` (centres unmarked) [Example 142, 5-{6-[1-(4-trifluoromethyl-benzyloxy)-propyl]-pyridin-2-yl}-3H-[1,2,3]triazole-4-carbonitrile] belongs 0.58 µM.
`Cc1sc(Oc2ccc(OC(F)(F)F)cc2)nc1-c1nn[nH]c1C#N` [Example 96, 5-[5-methyl-2-(4-trifluoromethoxy-phenoxy)-thiazol-4-yl]-3H-[1,2,3]triazole-4-carbonitrile] came in with an EC50 of 0.67 µM.
In turn, `CC(C)c1oc(-c2ccc(OC(F)(F)F)cc2)nc1-c1nn[nH]c1C#N` [Example 124, 5-[5-isopropyl-2-(4-trifluoromethoxy-phenyl)-oxazol-4-yl]-3H-[1,2,3]triazole-4-carbonitrile] yielded an EC50 of 0.92 µM.
As to `N#Cc1[nH]nnc1-c1csc(-c2ccc(F)c(Cl)c2)n1` [Example 76, 5-[2-(3-chloro-4-fluoro-phenyl)-thiazol-4-yl]-3H-[1,2,3]triazole-4-carbonitrile], the concentration giving a half-maximal response (EC50) amounted to 0.59 µM.
On to `COc1ccccc1COc1cc(-c2nn[nH]c2C#N)cc(C(F)(F)F)c1` [Example 61, 5-[3-(2-methoxy-benzyloxy)-5-trifluoromethyl-phenyl]-3H-[1,2,3]triazole-4-carbonitrile], for which the EC50 was 0.44 µM.
The same measure for `N#Cc1[nH]nnc1-c1nc(Oc2ccc(OC(F)(F)F)cc2)sc1Cl` [Example 109, 5-[5-chloro-2-(4-trifluoromethoxy-phenoxy)-thiazol-4-yl]-3H-[1,2,3]triazole-4-carbonitrile]: 0.67 µM; for `N#Cc1[nH]nnc1-c1cc(C(F)(F)F)ccc1CCc1ccccc1` [Example 7, 5-(2-phenethyl-5-trifluoromethyl-phenyl)-3H-[1,2,3]triazole-4-carbonitrile]: 0.17 µM.
The same measure for `N#Cc1[nH]nnc1-c1ccccc1Cc1cc(C(F)(F)F)cc(C(F)(F)F)c1` [Example 5, 5-[2-(3,5-bis-trifluoromethyl-benzyl)-phenyl]-3H-[1,2,3]triazole-4-carbonitrile]: 0.2 µM; for `N#Cc1[nH]nnc1-c1cccc(-c2cccc(C(F)(F)F)c2)n1` [Example 141, 5-[6-(3-trifluoromethyl-phenyl)-pyridin-2-yl]-3H-[1,2,3]triazole-4-carbonitrile]: 0.71 µM; for `CC(Cc1ccccc1)Oc1cc(-c2nn[nH]c2C#N)cc(C(F)(F)F)c1` (centres unmarked) [Example 67, 5-[3-(1-methyl-2-phenyl-ethoxy)-5-trifluoromethyl-phenyl]-3H-[1,2,3]triazole-4-carbonitrile]: 0.49 µM.
To `N#Cc1[nH]nnc1-c1csc(/C=C/c2cccc(C(F)(F)F)c2)n1` [Example 81, 5-{2-[(E)-2-(3-trifluoromethyl-phenyl)-vinyl]-thiazol-4-yl}-3H-[1,2,3]triazole-4-carbonitrile] belongs 0.99 µM; to `N#Cc1[nH]nnc1-c1nc(-c2ccc(Cl)cc2)sc1C1CC1` [Example 105, 5-[2-(4-chloro-phenyl)-5-cyclopropyl-thiazol-4-yl]-3H-[1,2,3]triazole-4-carbonitrile], 1.91 µM.
